Assay results as given in patent publication US6127336A, “Antibacterial and antifungal peptide” (priority 1996, dated 2000).
No end group written: not given here.

What was measured:
Type in all cases: cell-based
[1] = test system: Aerococcus viridans; test: Antibacterial activity by microspectrophotometry; conditions: Gram +, 24 hours at 25° C., absorbance at 600 nm
[2] = test system: Salmonella typhimurium; test: Antibacterial activity by microspectrophotometry; conditions: Gram -, 24 hours at 25° C., absorbance at 600 nm
[3] = test system: Bacillus subtilis; test: Antibacterial activity by microspectrophotometry; conditions: Gram +, 24 hours at 25° C., absorbance at 600 nm
[4] = test system: Pseudomonas maculicola; test: Antibacterial activity, phytopathogenic bacteria; conditions: same protocol
Description: (§1) Pure each strain of bacteria used (E. coli; M. luteus), an isolated […] is suspended in 10 ml of DIFCO PB medium (Poor Broth, Luria Bertani medium free of yeast extract) and incubated at 30° C. overnight with slow stirring.
(§2) The bacteria to be tested are brought to an optical density at 600 nm of 0.001 in fresh culture medium. 10 μl of each fraction is deposited in microtitration plates in the presence of 100 μl of the bacterial suspension. After incubation for 24 hours at 25° C., the growth is evaluated by measuring the absorbance at 600 nm using a microtitration plate reader.
(§3) Using the same protocol but with phytopathogenic bacteria, the following results are obtained: […]

[5] = test system: Pseudomonas syringae; test: Antibacterial activity, phytopathogenic bacteria; conditions: same protocol
Description: as §1, §2, §3

[6] = test system: Pseudomonas syr phaseoli; test: Antibacterial activity, phytopathogenic bacteria; conditions: same protocol
Description: as §1, §2, §3

[7] = test system: Pseudomonas syringae pv syringae; test: Antibacterial activity, phytopathogenic bacteria; conditions: same protocol
Description: as §1, §2, §3

[8] = test system: Xanthomonas campestris pv campestris; test: Antibacterial activity, phytopathogenic bacteria; conditions: same protocol
Description: as §1, §2, §3

[9] = test system: Xanthomonas phaseolica; test: Antibacterial activity, phytopathogenic bacteria; conditions: same protocol
Description: as §1, §2, §3

[10] = test system: Xanthomonas vesicatoria 687.3; test: Antibacterial activity, phytopathogenic bacteria; conditions: same protocol
Description: as §1, §2, §3

[11] = test system: Xanthomonas vesicatoria B229RI; test: Antibacterial activity, phytopathogenic bacteria; conditions: same protocol
Description: as §1, §2, §3

[12] = test system: Pseudomonas valerianella; test: Antibacterial activity, phytopathogenic bacteria; conditions: same protocol
Description: as §1, §2, §3

[13] = test system: Micrococcus luteus; test: Antibacterial activity by microspectrophotometry
Description: as §1, §2

[14] = test system: Escherichia coli D22; test: Antibacterial activity by microspectrophotometry; conditions: Escherichia coli D22, Gram -; 24 hours at 25° C., absorbance at 600 nm
Description: as §1, §2

[15] = test system: Escherichia coli D31; test: Antibacterial activity by microspectrophotometry; conditions: Escherichia coli D31, Gram -; 24 hours at 25° C., absorbance at 600 nm
Description: as §1, §2

[16] = test system: Alternaria dauci; test: Antifungal activity, phytopathogenic fungi
Description: as §1, §2
(§4) Using the same protocol but with phytopathogenic fungi, the following results are obtained: […]

[17] = test system: Botrytis petuniae; test: Antifungal activity, phytopathogenic fungi
Description: as §1, §2, §4

[18] = test system: Stemphyllium; test: Antifungal activity, phytopathogenic fungi
Description: as §1, §2, §4

[19] = test system: Fusarium oxysporum L; test: Antifungal activity, phytopathogenic fungi
Description: as §1, §2, §4

[20] = test system: Verticilium toreillis; test: Antifungal activity, phytopathogenic fungi
Description: as §1, §2, §4

[21] = test system: Fusarium oxysporum meloni; test: Antifungal activity, phytopathogenic fungi
Description: as §1, §2, §4

[22] = test system: porcine red blood cells; test: Hemolytic test; conditions: synthetic molecule
Description: (§5) All of the antibacterial and hemolytic tests are carried out with the synthetic molecule.

[23] = test system: bovine red blood cells; test: Hemolytic test; conditions: synthetic molecule
Description: as §5

[24] = test system: Staphylococcus aureus; test: Antibacterial activity by microspectrophotometry; conditions: Gram +, 24 hours at 25° C., absorbance at 600 nm
[25] = test system: Clavibacter michiganensis; test: Antibacterial activity by microspectrophotometry
Description: as §1, §2, §3

[26] = medium supplemented with 1 mM CaCl2 and 20 mM KCl

Substance “androctonine (RSVCRQIKICRRRGGCYYLCTNRPY; disulfide (positions not given here)) [peptide from scorpion Androctonus australis hemolymph; 4 cysteine residues in two intramolecular disulfide bridges; tests done with the synthetic molecule]” has an MIC [1] of 0.3 to 0.6 µM, an MIC [2] of 3 to 6 µM and an MIC [3] of 1.5 to 3.0 µM. The MIC [4] was 3 to 6 µM, the MIC [5] was 0.5 to 1 µM and the MIC [6] was 2 to 4 µM. It also gave an MIC [7] of 15 to 22 µM, an MIC [8] of 3 to 6 µM and an MIC [9] of 1 to 2 µM. The MIC [10] was 1.5 to 3 µM, the MIC [11] was 1.5 to 3 µM and the MIC [12] was 15 to 22 µM. For the same substance, the MIC ([13]; Micrococcus luteus, Gram +, 24 hours at 25° C., absorbance at 600 nm) was 0.6 to 1.5 µM, the “antibacterial activity of synthetic molecule compared with native molecule” value ([13]; bacterium Micrococcus liteus, synthetic (FMOC, renatured) vs native) was “same antibacterial activity as the native molecule” and the MIC [14] was greater than 30 µM. For the same substance, the MIC [15] was 3 to 6 µM, the MIC with salts [16, 26] was 16 to 32 µM and the MIC without salts ([16]; without salts) was 4.1 to 8.2 µM. The MIC with salts [17, 26] was greater than 32 µM, the MIC without salts ([17]; without salts) was 4 to 8 µM and the MIC with salts [18, 26] was 16 to 32 µM. For the same substance, the MIC without salts ([18]; without salts) was 4 to 8 µM, the MIC with salts [19, 26] was greater than 32 µM and the MIC without salts ([19]; without salts) was 2 to 4 µM. For the same substance, the MIC with salts [20, 26] was greater than 32 µM, the MIC without salts ([20]; without salts) was 2 to 4 µM and the MIC without salts [21] was 2 to 4 µM. The “lytic effect on red blood cells” value [22] was “no lytic effect”, the “lytic effect on red blood cells” value [23] was “no lytic effect” and the MIC [24] was 15 to 30 µM. For the same substance, the MIC ([25]; Clavibacter michi ganensis, Gram +, Table 1, 24 hours at 25° C., absorbance at 600 nm) was 6 to 15 µM and the MIC ([25]; Clavibacter michiganensis, Table 2, phytopathogenic bacteria, same protocol) was 6 to 15 µM.
